{"source": "paper PMC4741889", "about": "“Ligand-based chemoinformatic discovery of a novel small molecule inhibitor targeting CDC25 dual specificity phosphatases and displaying in vitro efficacy against melanoma cells” (Oncotarget, 2015)", "key": {"SAN cells": {"test_system": "SAN cells", "test": "Intracellular ROS level (DCFH-DA), SAN cells", "format": "cell-based, human", "settings": "SAN, then 100 μM 7 for 4 h", "method": "(§1) The high redox reactivity of quinonoid molecules, like compound 7, could greatly perturb the intracellular redox state. […] The oxidant effect of 7 was also evaluated after cell pre-treatment with two antioxidant molecules, such as N-acetyl-cysteine (NAC) and the specific inhibitor of NADPH oxidase, apocynin. To this aim, A2058 and SAN cells were pre-incubated for 1 h with 10 mM NAC or 45 min with 0.5 mM apocynin and then treated for 4 h with 100 μM compound 7. […] The cytotoxic activity of 7 could be mediated by the observed increase of ROS level.\n(§2) The intracellular ROS level was monitored using the oxidation-sensitive fluorescence probe DCFH-DA. Cells were seeded into 6-well-plates (3 × 10^5 cells/plate) for 24 h at 37°C and then treated at various times with 100 μM compound 7 or 0.5% DMSO. DCFH-DA was added in the dark at 10 μM final concentration 30-min before the end of each incubation; then, cells were collected, washed in PBS, and finally resuspended in 500 μL PBS for fluorimetric analysis. Measurements were realized in a Cary Eclipse fluorescence spectrophotometer (Varian); excitation and emission wavelengths were set at 485 nm and 530 nm, respectively; both excitation and emission slits were set at 10 nm. The effect of 7 on ROS production was also estimated after pretreatment of cells with 10 mM NAC for 1 h.\nSupplementary Figure S5: ROS production and their involvement in the apoptotic process of SAN cells, as induced by treatment with compound 7. A. Time-dependent measurement of ROS production. Cells were incubated with 0.5% DMSO (open bars) or 100 μM compound 7 (black bars) and then the intracellular ROS level was measured. B. Effect of antioxidant molecules on ROS production. The ROS level was also measured in cells untreated or pretreated with NAC or apocynin after a 4-h incubation with DMSO or 7. C. Effect of NAC on apoptosis. The PI incorporation was evaluated in cells untreated or pretreated with NAC after a 48-h incubation with DMSO or 7. ROS production was expressed as a.u., and apoptosis as a percentage. […]"}, "CDC25A": {"target": "T1, CDC25A (Homo sapiens, UniProt P30304)", "T1 construct": "Recombinant forms of the catalytic domains of CDC25A, -B and -C were obtained through the vectors pET28a-CDC25A-cd, pET28a-CDC25B-cd and pET28a-CDC25C-cd; made in house", "T1 sequence (P30304 376-482 limits assumed)": "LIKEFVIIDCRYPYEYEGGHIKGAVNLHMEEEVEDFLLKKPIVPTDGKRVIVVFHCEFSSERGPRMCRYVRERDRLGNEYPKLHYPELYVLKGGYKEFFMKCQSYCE", "test": "Ki from OMFP hydrolysis kinetics (Lineweaver-Burk), CDC25A", "format": "biochemical", "settings": "20 nM CDC25A, 1–25 μM OMFP; mean ± S.E.; read-out: Ki CDC25A", "method": "To measure the inhibition constant (Ki) of the recombinant forms of CDC25A, -B and -C towards the various inhibitors, the affinity of the different forms of CDC25 towards OMFP was measured either in the absence or in the presence of fixed concentrations of the various inhibitors. The reaction mixture contained 20 nM CDC25A, or 10 nM CDC25B, or 40 nM CDC25C, and different concentrations of the various inhibitors in 500 μL final volume of 20 mM Tris-HCl, pH 7.8, 1 mM DTT. DMSO was used as vehicle control. […] The corresponding Lineweaver-Burk plots allowed the calculation of the KM for OMFP and of the Vmax of OMFP hydrolysis, expressed as a.u./minmax. […] The Ki values were obtained from the decrease of a.u./minmax in the presence of the inhibitor, according to the equation a.u./mimmax’ = a.u./mimmax/{1 + ([I]/Ki)}, where a.u./mimmax’ represents the Vmax measured in the presence of the concentration [I] of the inhibitor. The Ki values were obtained from at least three independent experiments and reported as mean ± S.E."}, "A2058 cells": {"test_system": "A2058 cells", "test": "Intracellular ROS level (DCFH-DA), A2058 cells", "format": "cell-based, human", "method": "as §1, §2"}, "p53 protein levels": {"test_system": "p53 protein levels", "test": "Western blotting of p53 protein levels in SAN cells", "format": "cell-based, human", "settings": "100 μM, 16 h (not shown)"}, "CDC25C protein levels [1]": {"test_system": "CDC25C protein levels", "test": "Western blotting of CDC25C protein levels in A2058 cells", "format": "cell-based, human", "settings": "A2058, 100 μM, from 4 h up to 16 h", "method": "To better investigate the effect of this inhibitor at the molecular level, we evaluated if the treatment of A2058 cells with 7 affected also the protein levels of the three CDC25 forms. […] On the other hand, the protein levels of CDC25B were unaffected by treatment of A2058 cells with 7 up to 16 h.\nA2058 cells were seeded into 6-well-plates (3 × 10^5 cells/plate) for 24 h at 37°C and then treated at different times with 100 μM compound 7 or 0.5% DMSO. After treatment, cells were harvested, washed with PBS and then lysed in ice-cold modified radio immunoprecipitation assay (RIPA) buffer (50 mM Tris-HCl, pH 7.4, 150 mM NaCl, 1% Nonidet P-40, 0.25% sodium deoxycholate, 1 mM Na3VO4 and 1 mM NaF), supplemented with protease inhibitors and incubated for 30 min on ice. The supernatant obtained after centrifugation at 12,000 rpm for 30 min at 4°C constituted the total protein extract. The protein concentration was determined by the method of Bradford, using bovine serum albumin (BSA) as standard. Equal amounts of total protein extracts were used for Western blot analysis. […] Membranes were then analysed by an enhanced chemiluminescence reaction, using Super Signal West Pico kit (Pierce) according to manufacturer's instruction; signals were visualized by autoradiography."}, "CDC25C protein levels [2]": {"test_system": "CDC25C protein levels", "test": "Western blotting of CDC25C protein levels in SAN cells", "format": "cell-based, human", "settings": "100 μM, 1, 2 or 4 h"}}, "data": [{"smiles": "O=C(O)C1CCCCC1c1c2ccc(=O)cc-2oc2cc(O)ccc12", "note": "(stereo not drawn) [Compound 7, 2-(6-hydroxy-3-oxo-3H-xanthen-9-yl)cyclohexanecarboxylic acid]", "values": [{"measurement": "increase of ROS level after apocynin pre-treatment", "setting": "SAN cells; 0.5 mM apocynin 45 min", "value": "did not prevent the increase of ROS level"}, {"measurement": "increase of ROS level after NAC pre-treatment", "setting": "SAN cells; 10 mM NAC 1 h", "value": "prevented by the NAC treatment"}, {"measurement": "Ki", "setting": "CDC25A", "value": "650 ± 40", "unit": "nM"}, {"measurement": "intracellular ROS level", "setting": "A2058 cells; A2058, 100 μM, significant after 4 h", "value": "time-dependent increase of the ROS level"}, {"measurement": "increase of ROS level after apocynin pre-treatment", "setting": "A2058 cells; A2058, 0.5 mM apocynin 45 min, then 100 μM 7 for 4 h", "value": "did not prevent the increase of ROS level"}, {"measurement": "increase of ROS level after NAC pre-treatment", "setting": "A2058 cells; A2058, 10 mM NAC 1 h, then 100 μM 7 for 4 h", "value": "prevented by the NAC treatment"}, {"measurement": "p53 protein level", "setting": "p53 protein levels", "value": "higher level of this protein"}, {"measurement": "CDC25C protein levels", "setting": "CDC25C protein levels [1]", "value": "progressive and significant reduction of CDC25C protein levels"}, {"measurement": "CDC25C protein levels", "setting": "CDC25C protein levels [2]", "value": "earlier decrease of CDC25C protein levels"}]}]}
